According to patent US20260306460A1, “COMPOSITION FOR REMOVING AND INHIBITING SENESCENT CELLS, AND USES THEREOF” (LIFECEUTIX CO., LTD., priority 2023, published 2026):

Legend:
Type in all cases: in vivo, mouse
[1] = tested on: naturally aged C57BL6J mice; experiment: SA-β-gal staining in organs of naturally aged mice, Example 21-3, Table 19; settings: staining area, untreated aged = 100
Method: (§1) 22-month-old female C57BL6J mice (KRIBB Laboratory Animal Resource Center) were acclimated to the experimental environment for one week, after which the aged mice were randomly assigned to experimental and control groups. Eight-week-old, non-aged mice served as controls. LX-403 was mixed in a 10% ethanol solution of PEG400 and administered orally at a concentration of 25 mg/kg daily for 21 days, or administered to the skin, joints, or eyes at a concentration of 1 μM. LX-1801 was mixed in distilled water with 4% DMSO, 30% PEG300, and 5% Tween80 and administered to the skin, joints, or eyes at a concentration of 0.4 μM daily for 21 days. LX-2001 was mixed in PBS and administered to the skin, joints, or eyes at a concentration of […] daily for 21 days. LX-2002 was mixed in distilled water with 4% DMSO, 30% PEG300, and 5% Tween80 and administered to the skin, joints, or eyes at a concentration of 2 μM daily for 21 days. […] LX-2005 was mixed in distilled water with 4% DMSO, 30% PEG300, and 5% Tween80 and administered to the skin, joints, or eyes at a concentration of 90 μM daily for 21 days. LX-2007 was mixed in distilled water with 4% DMSO, 30% PEG300, and 5% Tween80 and administered to the skin, joints, or eyes at a concentration of 90 μM daily for 21 days. […] LX-3002 was mixed in distilled water with 4% DMSO, 30% PEG300, and 5% Tween80 and administered orally at a concentration of 10 mg/kg daily for 21 days. […] LX-5411 was mixed in 5% PBS and administered orally at a concentration of 10 mg/kg daily for 21 days or administered to the skin, joints, or eyes at a concentration of 3 μM. LX-5701 was mixed in PBS and administered orally at a concentration of 360 mg/kg daily for 21 days. LX-6807 was mixed in saline and administered intraperitoneally at a concentration of 1 mg/kg daily for 21 days. LX-2101 or LX-2102 was mixed in PBS solution with 5% DMSO and administered intraperitoneally at a concentration of 20 mg/kg or 10 mg/kg, respectively, daily for 21 days. The control group received only the solution in the same volume. After the end of drug administration, the methods described in each example below were performed.
Mice were sacrificed, tissue sections were prepared from each organ, and stained for the senescence-associated marker (SA-β-gal) using the same method as in Example 7-3 of WO2023-085787 A1.

SAMP8 mice = experiment: Cognitive impairment in SAMP8 mice (p16 mRNA, Y maze), Example 28, Table 52; settings: for Spontaneous alternation: Y maze test, 8 minutes, untreated 48.4 (±27.3); for p16 mRNA: hippocampus, daily for 21 days, untreated 100%
Method: Twelve-week-old male SAMP8 mice (SLC), a cognitive impairment model, were acclimated to the experimental environment for one week and then randomly assigned to experimental and control groups. […] LX-2101 was mixed with 5% DMSO (Sigma) in PBS and administered intraperitoneally at a concentration of 10 mg/kg daily for 21 days. The control group received only the same volume of solution. After drug administration, the mice were tested in the Y maze test to analyze the degree of cognitive and memory improvement. The Y-maze test is a method to assess short-term memory-type spatial awareness. It is a Y-shaped enclosed maze made of black acrylic to the following specifications (40 cm in length, 8 cm in width, 13 cm in height, with each arm angled 120 degrees). Three arms are designated A, B, and C. A mouse is carefully placed on one arm and allowed to move freely for 8 minutes. The arm into which the mouse enters up to its tail is recorded in order. Each instance of entering each arm sequentially is awarded 1 point (actual alternation). Alternation behavior is defined as entering all arms without overlapping, and spontaneous alternation behavior is calculated using the following formula:
Spontaneous alternation behavior (%)=Actual alternation/Maximum alternation×100 • Maximum alternation: Total number of entries-2
After the behavioral evaluation, the mice were sacrificed, and RNA from the hippocampus region of the brain was extracted using the same method as Example 7-2 of WO2023-085787 A1, and qRT-PCR was performed using the synthesized cDNA.

[2] = tested on: naturally aged C57BL6J mice; experiment: Cardiac aging (cardiomyocyte size, Sur2a mRNA) in naturally aged mice, Example 21-13, Table 28; settings: heart; for Cardiomyocyte cross-sectional area (μm2): untreated aged 372 (±9); for Sur2a mRNA (fold): untreated aged = 1
Method: as §1
At the histological level, cardiac aging is characterized by the loss of ventricular cardiomyocytes due to a decreased ability to replace apoptotic or necrotic cardiomyocytes, leading to hypertrophy of the remaining cardiomyocytes. To assess age-related cardiac hypertrophy, frozen cardiac tissue sections were stained with hematoxylin/eosin (H/E) and the thickness of ventricular cardiomyocytes was observed under an optical microscope.
Furthermore, cardiac aging is characterized by decreased stress tolerance, which is known to be due to decreased expression of ATP-sensitive potassium (KATP) channels. RNA was extracted from heart tissue as described in Example 7-2 of WO2023-085787 A1, and qRT-PCR was performed on Sur2a, a regulatory subunit of the KATP channel, using the synthesized cDNA.

[3] = tested on: obesity-induced aged C57BL6J mice; experiment: Diabetes and complications (HbA1c, wound size, VEGF mRNA) in obesity-aged mice, Example 23-6, Table 46; settings: for VEGF mRNA: eye, qRT-PCR, amount after aging calculated as 100%; for diabetic foot ulcer size: full-thickness 5 mm×5 mm wound, untreated 4.2 (±0.4); for diabetic foot ulcer size / HbA1c: obesity-induced diabetes mice; for HbA1c: serum, daily for 21 days, untreated 6.9 (±1.5)
Method: 15-week-old male C57BL6J mice (The Jackson Laboratory) were induced to obesity by a high-fat diet using the same method as in Example 9-1 WO2023-085787 A1. After acclimation to the experimental environment for one week, the mice were randomly assigned to experimental and control groups. […] LX-3002 was mixed in distilled water with 4% DMSO, 30% PEG300, and 5% Tween80 and administered orally at a concentration of 10 mg/kg daily for 21 days. LX-5701 was mixed in PBS and administered orally at a concentration of 360 mg/kg daily for 21 days. LX-6807 was mixed in saline and administered intraperitoneally at a concentration of 1 mg/kg daily for 21 days. The control group received only the solution in the same volume. After the end of drug administration, the methods described in each example below were performed.
Serum collected from mice using the same method as in Example 7-5 of WO2023-085787 A1 was used to measure glycated hemoglobin (HbA1c), a marker of hyperglycemia and diabetes. Furthermore, the improvement in diabetic foot ulcers and diabetic retinopathy, major complications of diabetes, was analyzed. Specifically, a diabetic foot ulcer model was created by creating a full-thickness 5 mm×5 mm wound on the left dorsal skin of mice induced with obesity-induced diabetes. The wound size was measured under untreated and treated conditions with the test compound, and the healing effect was analyzed. In addition, the mRNA amount of VEGF, a marker of angiogenesis in retinopathy, was measured from the eye using qRT-PCR as described in Example 7-2 of WO2023-085787 A1. The qRT-PCR results were calculated as 100% for the amount of each factor after aging was induced, and compared with the amount of each factor after treatment with the test compound.

Compound | SA-β-gal (%), Kidney [1] | SA-β-gal (%), Liver [1] | SA-β-gal (%), Lung [1] | SA-β-gal (%), Skin [1] | SA-β-gal (%), eWAT [1] | Spontaneous alternation (SAMP8 mice) | p16 mRNA (SAMP8 mice) | Cardiomyocyte cross-sectional area (μm2) [2] | VEGF mRNA [3] | diabetic foot ulcer size [3] | HbA1c [3] | Sur2a mRNA (fold) [2]
CC1(C)CC[C@]2(NC(=O)C(C)(F)F)CC[C@]3(C)[C@H](C(=O)C=C4[C@@]5(C)C=C(C#N)C(=O)C(C)(C)[C@@H]5CC[C@]43C)[C@@H]2C1 [LX-2101, Omaveloxolone] | 51 (±12.5) % | 71 (±5.5) % | 72 (±8.8) % | 75 (±11.8) % | 32 (±16.2) % | 51.1 (±16.8) % | 82 (±7.1) % |  |  |  |  | 
COC(=O)[C@]12CCC(C)(C)C[C@H]1[C@H]1C(=O)C=C3[C@@]4(C)C=C(C#N)C(=O)C(C)(C)[C@@H]4CC[C@@]3(C)[C@]1(C)CC2 [LX-2102, Bardoxolone methyl] | 62 (±8.6) % | 68 (±6.8) % | 59 (±14.6) % | 77 (±5.4) % | 49 (±9.7) % |  |  |  |  |  |  | 
CCCC\C=C/C=C/C=C\CCCCCCCC(=O)O [LX-2707, Punicic acid] |  |  |  |  |  | 54.5 (±2.0) % | 75 (±3.3) % | 331 (±15.7) μm2 | 76 (±4.0) % | 3.4 (±0.3) mm | 6.1 (±0.6) % | 
O=C1C2CCN(CC2)C1CNC(=O)C(F)(F)F (stereo not shown) [LX-5701] | 77 (±8.1) % | 65 (±4.8) % | 62 (±9.6) % | 76 (±6.9) % | 48 (±3.9) % | 62.7 (±11.9) % | 70 (±9.6) % | 297 (±20) μm2 | 61 (±10.6) % | 3.0 (±0.9) mm | 5.0 (±1.3) % | 2.8 (±0.2) fold
Cc1cccc([C@H](C)c2cnc[nH]2)c1C [LX-6807, Dexmedetomidine] |  |  |  |  |  | 60.7 (±4.3) % | 39 (±6.2) % | 281 (±47.1) μm2 | 68 (±1.6) % | 3.3 (±0.5) mm | 5.4 (±0.5) % | 3.0 (±0.2) fold
Tocofersolan [LX-3001] |  |  |  |  |  | 50.6 (±3.6) % | 64 (±2.8) % | 345 (±27.6) μm2 | 77 (±2.4) % | 3.5 (±0.2) mm | 6.4 (±0.4) % | 
